Reference: the Deep4Chem optical property database
Values belong to the compound of their own block, whether it stands above or below them.

Test: solvent given as SMILES

- fluorescence lifetime (in ClCCl): 4.6 ns
Structure (SMILES): c1ccc([B-]23NC(C4CCCCC4)=Nc4cccc([n+]42)N=C(C2CCCCC2)N3)cc1

- fluorescence lifetime (in CN(C)C=O): 8.17 ns
- fluorescence lifetime (in CS(C)=O): 0.06 ns
Structure (SMILES): C=CCNS(=O)(=O)c1ccc2c(c1)C(=O)/C(=C1\Sc3ccc(S(=O)(=O)NCC=C)cc3C1=O)S2

Structure (SMILES): CC(=O)[B-]1(C(C)=O)OC(C)=CC(c2ccc3ccccc3c2)=[O+]1
- fluorescence lifetime (in CC#N): 13.6 ns
- fluorescence lifetime (in ClC(Cl)(Cl)Cl): 1.6 ns

- fluorescence lifetime (in C1CCOC1): 2.29 ns
Structure (SMILES): COC(=O)c1cc2c(cc3ccc4cccc5ccc2c3c45)[nH]1

- fluorescence lifetime (in C1CCOC1): 13.8 ns
- fluorescence lifetime (in C1COCCO1): 14.9 ns
- fluorescence lifetime (in CC#N): 3.9 ns
Structure (SMILES): CN(C)c1ccc2c(c1)C(=O)NC2=O

Structure (SMILES): CC1(C)c2ccccc2N(c2ccccc2)c2ccc(-c3nc(-c4ccccc4)nc(-c4ccccc4)n3)cc21
- fluorescence lifetime (in O=P(c1ccccc1)(c1ccccc1)c1ccccc1Oc1ccccc1P(=O)(c1ccccc1)c1ccccc1): 4.37 ns

- fluorescence lifetime (in CCO): 5.52 ns
Structure (SMILES): CCCCCCCCCCCCN1C(=O)c2cccc3c(N(Cc4ccccn4)Cc4ccccn4)c4ccccc4c(c23)C1=O

- fluorescence lifetime (in ClCCl): 2.15 ns
Structure (SMILES): Cn1c2ccccc2c2cc(/C=C/C3=[O+][B-](F)(F)OC(/C=C/c4ccc5c(c4)c4ccccc4n5C)=C3c3ccccc3)ccc21

- fluorescence lifetime (in ClCCl): 9.1 ns
Structure (SMILES): Cc1cccc(C)c1/C=C/c1nc(N2CCOCC2)c2c([n+]1[O-])CCCC2

- fluorescence lifetime (in CC#N): 6.03 ns
- fluorescence lifetime (in ClCCl): 8.14 ns
Structure (SMILES): CCN(CC)c1ccc(/N=N/c2nc3ccc([N+](=O)[O-])cc3s2)cc1

- fluorescence lifetime (in ClC(Cl)Cl): 1.32 ns
Structure (SMILES): CCCCCCc1cc(-c2ccc3c(c2)C2CCCC2N3c2ccc3c(c2)C(C)(C)c2ccccc2-3)sc1/C=C1\C(=O)c2ccc(C(=O)O)cc2C1=O (stereo not given)

- fluorescence lifetime (in ClCCl): 6.4 ns
Structure (SMILES): COc1ccc(C2=Cc3ccccc3P2(=O)c2ccccc2)cc1 (stereo not given)

- fluorescence lifetime (in C1CCOC1): 11 ns
- fluorescence lifetime (in CC#N): 9.96 ns
- fluorescence lifetime (in CC(C)O): 10.8 ns
- fluorescence lifetime (in CCCCO): 11.4 ns
- fluorescence lifetime (in CCO): 10.4 ns
- fluorescence lifetime (in CO): 8.48 ns
- fluorescence lifetime (in ClCCl): 6.93 ns
- fluorescence lifetime (in O): 9.6 ns
Structure (SMILES): COc1ccc2cc([C@H](C)C(=O)O)ccc2c1

Structure (SMILES): N#Cc1cc(N2c3ccccc3Sc3ccccc32)cc(N2c3ccccc3Sc3ccccc32)c1
- fluorescence lifetime (in Cc1ccccc1): 22.6 ns

- fluorescence lifetime (in ClC(Cl)Cl): 0.92 ns
Structure (SMILES): F[B-]1(F)OC(c2ccc(C(F)(F)F)cc2)=Cc2ccc3ccccc3[n+]21

- fluorescence lifetime (in ClC(Cl)Cl): 6 ns
Structure (SMILES): CC(C)(C)c1ccc(Oc2c3c4c(cc(Oc5ccc(C(C)(C)C)cc5)c5c6c(Oc7ccc(C(C)(C)C)cc7)c(Oc7ccc(C(C)(C)C)cc7)c7c8c(cc(Oc9ccc(C(C)(C)C)cc9)c(c(c2Oc2ccc(C(C)(C)C)cc2)c45)c86)C(=O)OC7=O)C(=O)OC3=O)cc1

Structure (SMILES): CN(C)c1ccc(/C=C/C=C2\CC/C(=C\c3ccc(N(C)C)cc3)C2=O)cc1
- fluorescence lifetime (in C1CCOC1): 0.42 ns
- fluorescence lifetime (in CC#N): 0.91 ns
- fluorescence lifetime (in CC(C)=O): 1.15 ns
- fluorescence lifetime (in CC(C)O): 1.24 ns
- fluorescence lifetime (in CCCCO): 1.25 ns
- fluorescence lifetime (in CCCCOC(C)=O): 0.63 ns
- fluorescence lifetime (in CCCO): 1.13 ns
- fluorescence lifetime (in CCO): 0.82 ns
- fluorescence lifetime (in CCOC(=O)c1ccccc1): 0.83 ns
- fluorescence lifetime (in CCOC(C)=O): 0.71 ns
- fluorescence lifetime (in CCOCC): 0.31 ns
- fluorescence lifetime (in CN(C)C=O): 1.32 ns
- fluorescence lifetime (in CO): 0.3 ns
- fluorescence lifetime (in CS(C)=O): 1.4 ns
- fluorescence lifetime (in Cc1ccccc1): 0.36 ns
- fluorescence lifetime (in ClC(Cl)(Cl)Cl): 0.29 ns
- fluorescence lifetime (in ClC(Cl)Cl): 0.98 ns
- fluorescence lifetime (in ClCCl): 1.13 ns
- fluorescence lifetime (in Clc1ccccc1Cl): 0.83 ns
- fluorescence lifetime (in S=C=S): 0.43 ns
- fluorescence lifetime (in c1ccccc1): 0.38 ns
- fluorescence lifetime (in c1ccncc1): 1.26 ns

Structure (SMILES): CCN(CC)c1ccc2cc(/C(Cl)=C/C=C/C(=C(C#N)C#N)c3ccc4c(c3)c3ccccc3n4CC)c(=O)oc2c1
- fluorescence lifetime (in CC(C)=O): 0.47 ns
- fluorescence lifetime (in CCOC(C)=O): 1.14 ns
- fluorescence lifetime (in CN(C)C=O): 0.86 ns
- fluorescence lifetime (in CS(C)=O): 0.36 ns
- fluorescence lifetime (in Cc1ccccc1): 1.39 ns
- fluorescence lifetime (in ClCCl): 1.82 ns

- fluorescence lifetime (in C1CCCCC1): 4 ns
Structure (SMILES): CCCCC#Cc1cccc2cc(CCCC)c3cc(-c4cc[b-]5c(c4)c(CCCC)cc4cccc(C#CCCCC)[n+]54)cc[b-]3[n+]12

- fluorescence lifetime (in CC#N): 12.8 ns
Structure (SMILES): O=C1c2ccccc2C2=C(c3ccccn3)NN=C(c3ccccn3)C2c2ccccc21 (stereo not given)

- fluorescence lifetime (in C1CCCCC1): 1 ns
- fluorescence lifetime (in ClC(Cl)Cl): 2 ns
Structure (SMILES): CN(C)c1ccc(-c2ccc(-c3nc(C#N)c(C#N)n3C)cc2)cc1

Structure (SMILES): CCC1=C(C)C2=C(C)c3cc(I)c(I)n3[B-](F)(F)[N+]2=C1C
- fluorescence lifetime (in C1CCCCC1): 1.02 ns
- fluorescence lifetime (in CC(C)=O): 0.82 ns
- fluorescence lifetime (in CCO): 0.939 ns
- fluorescence lifetime (in CCOC(C)=O): 0.893 ns
- fluorescence lifetime (in CO): 0.882 ns
- fluorescence lifetime (in OCC(F)(F)F): 0.779 ns

- fluorescence lifetime (in ClCCl): 2.23 ns
Structure (SMILES): COC(=O)c1[nH]c(-c2ccccc2)c2nnc3ccc(OC)cc3c12

Structure (SMILES): c1ccc(N2c3ccc4ccccc4c3-c3c4ccccc4cc[n+]3[B-]2(c2ccccc2)c2ccccc2)cc1
- fluorescence lifetime (in Cc1ccccc1): 6.31 ns

- fluorescence lifetime (in ClC(Cl)Cl): 1.04 ns
Structure (SMILES): CC1(C)c2ccccc2-c2ccc(N3c4ccc(-c5ccc(/C=C6\C(=O)c7ccc(C(=O)O)cc7C6=O)s5)cc4C4CCCC43)cc21 (stereo not given)

Structure (SMILES): COc1nnc(Cl)nn1
- fluorescence lifetime (in ClCCl): 160 ns
